Measured values published in patent US20250298019A1, “BORRELIA BURGDORFERI PEPTIDOGLYCAN DETECTION METHODS” (VIRGINIA TECH INTELLECTUAL PROPERTIES, INC., priority 2021, published 2025).

System: B. burgdorferi 5A11
Experiment: Growth of B. burgdorferi in BSK-II medium with GlcNAc replaced by other N-acetylated sugars
Format: cell-based, Borrelia burgdorferi
Settings: FIG. 7; for ability to support growth in the absence of GlcNAc: GlcNAc-free BSK-II supplemented with the sugar, 37° C., 5% CO2

Compound | ability to support growth in the absence of GlcNAc | replication rate and final density compared with GlcNAc (5A11 in BSK-II complete media supplemented with the sugar, three independent cultures)
CC(=O)N[C@H]1C(O)O[C@H](CO)[C@H](O)[C@@H]1O (stereo partly drawn) [GalNAc, N-acetylgalactosamine] | support growth in the absence of GlcNAc | 
CC(=O)N[C@@H]1C(O)O[C@H](CO)[C@@H](O)[C@@H]1O (stereo partly drawn) [ManNAc, N-acetylmannosamine] | support growth in the absence of GlcNAc | replicated at a similar rate and reached a comparable final density to GlcNAc
